Among the data in US20250249102A1, “CMV-HIV SPECIFIC CHIMERIC ANTIGEN RECEPTOR T CELLS” (priority 2022, published 2025) are HIV replication and EC50 values, retold here.

Experiment [1] has as its system HIV-1 BaL or HIV-1 NL4-3. The following applies: for HIV replication: CD8+-depleted PBMCs infected with HIV-1 BaL or HIV-1 NL4-3.
Experiment [2] has as its system HIV-1 BaL or HIV-1 NL4-3. The experiment can be described thus: microbe, parasite or virus in culture. The settings on record: Human immunodeficiency virus 1, PBMC.

Where two headings read alike, the source gives them in different places.

The EC50 is the concentration needed to bring the measured effect to its halfway point. Lower therefore signals greater potency. Consider `CC(C)CN(C[C@@H](O)[C@H](Cc1ccccc1)NC(=O)O[C@H]1CO[C@H]2OCC[C@H]21)S(=O)(=O)c1ccc(N)cc1` [darunavir], for which the HIV replication result in the experiment with HIV-1 BaL or HIV-1 NL4-3 [1] is recorded as “prevent HIV replication”. The molecule also showed a 50% effective concentration (EC50) in the experiment with HIV-1 BaL or HIV-1 NL4-3 [2] of 4.3 nM.

Turning to enfuvirtide, in the experiment with HIV-1 BaL or HIV-1 NL4-3 [1], the half-maximal effective concentration (EC50) came out at 27.9 nM and the HIV replication result was “prevent HIV replication”.
